The source of these data is publication PMC12029069, “Synthesis and Evaluation of Antitumor and Anti-Angiogenesis Activity of Pyrone- or Pyridone-Embedded Analogs of Cortistatin A” (Marine Drugs, 2025).

The test system of data set [1] is HUVECs. In words: Antiproliferative activity against HUVECs (WST-8, 72 h). It is filed as cell-based, human. Conditions: for pIC50: 72 h, WST-8, average of triplicate; for S.I. (selective index: IC50 against KB3-1 cells/IC50 against HUVECs): KB3-1 over HUVECs. How it is done:
HUVECs (5 × 10^5 cells/vial) were purchased from Kurabo Inc. and grown in HuMedia-EG2 medium with growth supplements (Kurabo, Osaka, Japan). HUVECs in the culture medium were plated into each well of 96-well plates (2 × 10^3 cells/well/100 µL). After 24 h, the serially diluted compounds as a 5% DMSO/EtOH or EtOH solution (1 µL) were added, and then the plates were incubated for an additional 72 h in a humidified atmosphere of 5% CO2 at 37 °C. The cell proliferation was detected by WST-8 colorimetric reagent (Nacalai Tesque, Inc., Kyoto, Japan). The IC50 value was determined by linear interpolation from the growth inhibition curve, and the averaged IC50 values of the triplicate experiment are shown in Table 1.

For data set [2], the system named is human epidermoid carcinoma KB3-1 cells. In words: Antiproliferative activity against KB3-1 cancer cells (WST-8, 72 h). It is filed as cell-based. How it is done:
KB3-1 cells were cultured in RPMI-1640 medium supplemented with 10% heat-inactivated fetal bovine serum and kanamycin (50 μg/mL). Cells were plated into 96-well microplates at 2 × 10^3 cells/100 μL assay medium/well, and various concentrations of test compounds were added to each well as a 5% DMSO/EtOH or EtOH solution (1 µL). The plates were incubated at 37 °C in a humidified atmosphere of 5% CO2 for 72 h, and cell proliferation was determined by WST-8 colorimetric assay as above, and the averaged IC50 values of the triplicate experiment are shown in Table 1.

For data set [3], the system named is new blood vessels in the Matrigel plug induced by bFGF. In words: In vivo Matrigel plug assay (bFGF-induced angiogenesis, hemoglobin content). On the set-up: species or system mice. The conditions noted are these: 0.3 mg/kg oral, every other day (5 times), day 10, mean ± SD. As for the experimental part:
All animal procedures were approved by the Committee on Animal Experimentation of Osaka University (Approval number: DouYaku 24-8-1). The measurements of in vivo angiogenesis using Matrigel plugs were performed as described previously. An aliquot (250 µL) of Matrigel containing 200 ng/mL of bFGF and 100 U/mL of heparin was injected subcutaneously into the ventral side of female ddY mice (6 weeks old, N = 4, Japan SLC, Inc., Shizuoka, Japan). Then, analog 19 was orally administered on every other day (total 5 times: day 1, 3, 5, 7, and 9) as a suspension in 1% sodium carboxymethyl cellulose (CMC-Na). At day 10, the Matrigel plugs were photographed and removed. The levels of new vessels were quantified by measuring the hemoglobin of the Matrigel plug (µg hemoglobin/mg Matrigel) with the Drabkin reagent Kit.

Data set [4] can be described thus: Hepatic toxicity: AST and ALT activities in mouse serum. The conditions noted are these: 1 mg/kg oral treatment group, day 9. It is filed as in vivo, mice. As for the experimental part:
The body weight of mice of the control group (bFGF (+) or (−)) and the groups treated with the testing compound (0.1, 0.3, and 1 mg/kg) at day 1 and day 9 were measured. […]

Data set [5] concerns Murine sarcoma S180 cells. In words: In vivo antitumor effect in mice inoculated with sarcoma S180 cells. The conditions noted are these: every other day for 14 days, S180 s.c. in ddY mice. The text has this: Murine sarcoma S180 cells (1 × 10^6 cells/body) were implanted subcutaneously into the right ventral flank of female ddY mice (6 weeks old). After one week from implantation, analog 19 was orally administered on every other day for 14 days (total 7 times) as a suspension in 1% CMC-Na. Then, the tumor was isolated and weighed to calculate the inhibition ratio. The control group and the group treated with the testing compound consisted of six mice each in this study.

Data set [6] can be described thus: Body weight of mice during the Matrigel plug assay (acute toxicity). It is filed as in vivo. The conditions noted are these: mean ± SD. How it is done:
The body weight of mice of the control group (bFGF (+) or (−)) and the groups treated with the testing compound (0.1, 0.3, and 1 mg/kg) at day 1 and day 9 were measured. The mean activities of aspartate aminotransferase (AST) and alanine aminotransferase (ALT) in mouse serum at day 10 of control group and the 1 mg/kg treated group were measured using the LabAssay^TM AST or ALT kit (FUJIFILM Wako Pure Chemical Co., Osaka, Japan), respectively.

The test system of data set [7] is CDK8. The conditions noted are these: ref [37]; cited from earlier work.
Data set [8] has as its system human epidermoid carcinoma KB3-1 cells. Conditions: cited from earlier work.
For data set [9], the system named is HUVECs. The conditions noted are these: cited from earlier work; for S.I. (selective index: IC50 against KB3-1 cells/IC50 against HUVECs): KB3-1 over HUVECs.
Where [10] appears, read: Homo sapiens, KB 3-1, WST-8, average of triplicate.

pIC50: −log10 of the molar value. Read-outs that look alike come from different tables or passages of the source. Marks after values point to notes of the source that are not given here.

In the case of `Cc1oc(=O)c2c(c1CO)O[C@@H]1C(=C2)CC[C@]2(C)[C@@H](c3ccc4ccncc4c3)CC[C@@H]12` [Compound 11, (3S,3aR,11aS,11bR)-10-(Hydroxymethyl)-3-(isoquinolin-7-yl)-3a,9-dimethyl-1,2,3,3a,4,5,11a,11b-octahydro-7H-cyclopenta[h]pyrano[4,3-b]chromen-7-one], the pIC50 in [1] (Homo sapiens, HUVEC) was 7.70; in data set [2] (setting [10]), 5.00. Besides, in data set [1], the “S.I. (selective index: IC50 against KB3-1 cells/IC50 against HUVECs)” value is 500.
As to `Cn1cc(CO)c2c(c1=O)C=C1CC[C@]3(C)[C@@H](c4ccc5ccncc5c4)CC[C@H]3[C@@H]1O2` [Compound 19, (3S,3aR,11aS,11bR)-10-(Hydroxymethyl)-3-(isoquinolin-7-yl)-3a,8-dimethyl-2,3,3a,4,5,8,11a,11b-octahydrocyclopenta[7, 8]chromeno[3,2-c]pyridin-7(1H)-one], in [1], the pIC50 is 9.00 and the “S.I. (selective index: IC50 against KB3-1 cells/IC50 against HUVECs)” value was found to be 6400. In addition, the “Hb Content (hemoglobin µg/isolated Matrigel mg)” value in data set [3] is reported as 2.42 ± 0.79 µg/mg. Besides, in data set [4], the “ALT (alanine aminotransferase activity)” value stood at 48.4 ± 3.3 IU/L and the “AST (aspartate aminotransferase activity)” value is 57.8 ± 4.5 IU/L. Moreover, the “tumor growth inhibition, reduction compared to the control group” value in [5] (0.1 mg/kg oral) is given as ~ 75%. In addition, in [5] (1 mg/kg oral), the tumor weight reduction entry was “more than 85%”. Also, in data set [2] (WST-8, average of triplicate), the pIC50 was 5.19. In [6] (0.1 mg/kg oral), the “Body Weight Day 1” value is 25.70 ± 0.58 g and the “Body Weight Day 9” value was found to be 26.12 ± 0.58 g. Further, in data set [6] (0.3 mg/kg oral), the “Body Weight Day 1” value came out at 25.60 ± 0.64 g and the “Body Weight Day 9” value was determined as 26.14 ± 0.62 g. The “Body Weight Day 1” value in data set [6] (1.0 mg/kg oral) worked out at 26.30 ± 0.41 g.
`CN(C)[C@H]1CC[C@@]2(C)[C@@H](CC[C@@H]3[C@@H]2CC[C@]2(C)[C@@H](c4ccc5ccncc5c4)CC[C@@H]32)C1` [Compound 28, reference compound]: the negative-log IC50 (pIC50) is 6.25 in data set [1] (Homo sapiens, HUVEC); 7.62 in data set [7]; 5.32 in data set [2] (setting [10]). Moreover, the “S.I. (selective index: IC50 against KB3-1 cells/IC50 against HUVECs)” value in data set [1] stood at 8.6.
As for `CC(=O)NCc1c2c(c(=O)n(C)c1C)C=C1CC[C@]3(C)[C@@H](c4ccc5ccncc5c4)CC[C@H]3[C@@H]1O2` [Compound 27, N-(((3S,3aR,11aS,11bR)-3-(Isoquinolin-7-yl)-3a,8,9-trimethyl-7-oxo-1,2,3,3a,4,5,7,8,11a,11b-decahydrocyclopenta[7, 8]chromeno[3,2-c]pyridin-10-yl)methyl)acetamide], in [1], the negative logarithm of the IC50 (pIC50) was 8.00 and the “S.I. (selective index: IC50 against KB3-1 cells/IC50 against HUVECs)” value is 1340. This compound gave a pIC50 in data set [2] (WST-8, average of triplicate) of 4.87.
For `C[C@]12CCC3=CC4=C(CCCC4=O)O[C@H]3[C@@H]1CC[C@@H]2c1ccc2ccncc2c1` [Compound 2], the negative-log IC50 (pIC50) in data set [8] (reported value ref [21]) is 4.98; in data set [9] (reported value ref [21]) it was 7.46. In data set [9] (ref [21]), the “S.I. (selective index: IC50 against KB3-1 cells/IC50 against HUVECs)” value was 300 ^c.
As to `Cc1cc2c(c(=O)o1)C=C1CC[C@]3(C)[C@@H](c4ccc5ccncc5c4)CC[C@H]3[C@@H]1O2` [Compound 7, (3S,3aR,11aS,11bR)-3-(Isoquinolin-7-yl)-3a,9-dimethyl-1,2,3,3a,4,5,11a,11b-octahydro-7H-cyclopenta[h]pyrano[4,3-b]chromen-7-one], the negative logarithm of the IC50 (pIC50) in data set [1] (Homo sapiens, HUVEC) was 7.05; in [2] (setting [10]), 4.20. Also, the “S.I. (selective index: IC50 against KB3-1 cells/IC50 against HUVECs)” value in [1] amounted to 700.
On to `C[C@]12CCC3=Cc4c(cc[nH]c4=O)O[C@H]3[C@@H]1CC[C@@H]2c1ccc2ccncc2c1` [Compound 13, (3S,3aR,11aS,11bR)-3-(Isoquinolin-7-yl)-3a-methyl-2,3,3a,4,5,8,11a,11b-octahydrocyclopenta[7, 8]chromeno[3,2-c]pyridin-7(1H)-one], for which the pIC50 in [1] (Homo sapiens, HUVEC) was 8.00; in data set [2] (setting [10]) it was 4.96. Moreover, the “S.I. (selective index: IC50 against KB3-1 cells/IC50 against HUVECs)” value in data set [1] worked out at 1100. In addition, the “fold higher potency than 7 against HUVECs” value in data set [1] (relative to analog 7) was 9 fold.
Take `Cn1ccc2c(c1=O)C=C1CC[C@]3(C)[C@@H](c4ccc5ccncc5c4)CC[C@H]3[C@@H]1O2` [Compound 15, (3S,3aR,11aS,11bR)-3-(Isoquinolin-7-yl)-3a,8-dimethyl-2,3,3a,4,5,8,11a,11b-octahydrocyclopenta[7, 8]chromeno[3,2-c]pyridin-7(1H)-one]: the pIC50 in [1] (Homo sapiens, HUVEC) is 8.52; in [2] (setting [10]) it was 5.07. In data set [1], the “S.I. (selective index: IC50 against KB3-1 cells/IC50 against HUVECs)” value is 2870. For the same compound, the “fold potency over 13 against HUVECs” value in [1] (relative to analog 13) was 3.3 fold.
With `CC(=O)NCC1CC(=O)C2=C(C1)O[C@@H]1C(=C2)CC[C@]2(C)[C@@H](c3ccc4ccncc4c3)CC[C@@H]12` (stereo partly shown) [Compound 3], the negative logarithm of the IC50 (pIC50) in data set [8] (reported value ref [21]) was 5.09; in [9] (reported value ref [21]), 8.59. The “S.I. (selective index: IC50 against KB3-1 cells/IC50 against HUVECs)” value in data set [9] (ref [21]) is 3150 ^c.
For the compound Cortistatin A [Compound 1], the pIC50 is 5.15 in [8] (reported value ref [8]) and 8.74 in data set [9] (reported value ref [8]). Further, in data set [9] (ref [8]), the “S.I. (selective index: IC50 against KB3-1 cells/IC50 against HUVECs)” value is 3900 ^b.
